Test results as given in doi:10.1101/2025.11.04.686469, “Discovery of Host-Directed Small Molecules with Broad Anti-Leishmanial Efficacy” (bioRxiv, 2025).

What was measured:
[1] = tested on: intracellular L. donovani amastigotes; assay: Luminescent-based evaluation of intracellular anti-leishmanial activity in THP-1 macrophages; assay type: cell-based, Leishmania donovani; details: intracellular Leishmania donovani in THP1 macrophages, luminescence assay (Supplemental Table 2); read-out: Lum IC50
How it was run: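 PMA-differentiated THP-1 macrophages (150 nM, 72 h) were infected 18 h with firefly luciferase-expressing L. donovani LV82 promastigotes, then washed. Infected cells were treated with compounds at 0.1-10 μM for 72 h. Surviving intracellular amastigotes were quantified by firefly luciferase luminescence after cell lysis and 10 min substrate incubation at room temperature.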

THP-1 macrophages = assay: Effect of compounds on host cell viability (MTT); assay type: cell-based; details: read-out: 24h LC50; THP1 macrophages, 24-hour incubation, MTT assay (Supplemental Table 2)
How it was run: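 THP-1 cells were differentiated with 150 nM PMA for 72 h, then exposed to compounds at 1–50 μM for 24 h; selected compounds were also run at 1–300 μM for 72 h. MTT at 0.5 mg/mL was added for 2 h at 37 °C, and formazan absorbance was read at 560 nm minus 670 nm.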

| Compound | IC50 [1] | CC50 (THP-1 macrophages) |
| --- | --- | --- |
| COc1ccc(-c2cc(C(F)(F)F)nn2-c2ccc(NC3CCNC3)cc2)cc1OC (stereo not drawn) [Compound 260] | 4.3 µM | 13.9 µM |
| FC(F)(F)c1ccc(-c2ccc(-c3cc(C(F)(F)F)nn3-c3ccc(NC4CCN(Cc5ccc(Cl)c(Cl)c5)CC4)cc3)cc2)cc1 [Compound 90] | > 10 µM | > 50 µM |
| CC(C)(C)OC(=O)NCC(=O)Nc1ccc(-n2cc(C(F)(F)F)nc2-c2ccc(C(C)(C)C)cc2)cc1 [Compound 151] | > 10 µM | 31.8 µM |
| FC(F)(F)c1ccc(-c2ccc(-c3cc(C(F)(F)F)nn3-c3ccc(N4CC(NC5CCCC5)C4)cc3)cc2)cc1 [Compound 55] | 8.5 µM | 29.7 µM |
| NCC(=O)Nc1ccc(-n2cc(C(F)(F)F)nc2-c2ccc(Br)cc2)cc1 [Compound 195] | > 10 µM | 38.6 µM |
| O=C(Nc1ccc(-n2cc(C(F)(F)F)nc2-c2ccc(-c3ccccc3)cc2)cc1)c1ccccc1 [Compound 88] | > 10 µM | > 50 µM |
| CC(=O)c1ccc(-c2ccc(C(F)(F)F)cc2)cc1 [Compound 5] | 2.3 µM | 13.3 µM |
| FC(F)(F)c1cc(C2CCCCC2)n(-c2ccc(OC3CCNCC3)cc2)n1 [Compound 370] | 2.6 µM | 19.5 µM |
| FC(F)(F)c1ccc(-c2ccc(-c3cc(C(F)(F)F)nn3-c3ccc(NC4CCN(C5CCCCC5)C4)cc3)cc2)cc1 (stereo not drawn) [Compound 58] | 2.2 µM | 2.6 µM |
| CC(=O)NCCCCCN1CCC(Oc2ccc(-n3nc(C(F)(F)F)cc3C3CCCCC3)cc2)CC1 [Compound 431] | 4.8 µM | 22.4 µM |
| CS(=O)(=O)c1ccc(-n2nc(C(F)(F)F)cc2-c2ccc(-c3ccccc3)cc2)cc1 [Compound 174] | > 10 µM | > 50 µM |
| CN(C)c1ccc(-c2cc(C(F)(F)F)nn2-c2ccc(N3CCC(NC(=O)OC(C)(C)C)C3)cc2)cc1 (stereo not drawn) [Compound 217] | > 10 µM | > 50 µM |
| Fc1cccc(CN2CCC(Nc3ccc(-n4cc(C(F)(F)F)nc4-c4ccc(-c5ccc(C(F)(F)F)cc5)cc4)cc3)C2)c1 (stereo not drawn) [Compound 243] | > 10 µM | > 50 µM |
| COc1ccc(C(=O)N2CCC(Nc3ccc(-n4nc(C(F)(F)F)cc4-c4ccc(-c5ccc(C(F)(F)F)cc5)cc4)cc3)C2)cc1OC (stereo not drawn) [Compound 70] | > 10 µM | > 50 µM |
| c1cn(-c2ccc3nonc3c2)cn1 [Compound 207] | > 10 µM | > 50 µM |
| CC(C)C#Cc1ccc(-c2cc(C(F)(F)F)nn2-c2ccc(N)cc2)cc1 [Compound 95] | > 10 µM | > 50 µM |
| CC(C)(C)OC(=O)NC(Cc1ccccc1)C(=O)Nc1ccc(-n2cc(C(F)(F)F)nc2-c2ccc(-c3ccc(C(F)(F)F)cc3)cc2)cc1 (stereo not drawn) [Compound 78] | > 10 µM | > 50 µM |
| Fc1cccc(CN2CCC(Nc3ccc(-n4nc(C(F)(F)F)cc4C4CCCCC4)cc3)C2)c1 (stereo not drawn) [Compound 357] | 1.2 µM | 13.1 µM |
| Nc1ccc(-n2cnc3ccccc32)cc1 [Compound 147] | > 10 µM | > 50 µM |
| CC(C)(C)OC(=O)NC1CCN(c2ccc(-n3nc(C(F)(F)F)cc3-c3ccc(-c4ccc(C(F)(F)F)cc4)cc3)cc2)C1 (stereo not drawn) [Compound 128] | > 10 µM | > 50 µM |
| FC(F)(F)c1cn(-c2ccc(Br)cc2)c(-c2ccc(Oc3ccccc3)cc2)n1 [Compound 219] | > 10 µM | > 50 µM |
| Cc1nn(-c2ccc(Br)cc2)c2ccccc12 [Compound 132] | > 10 µM | > 50 µM |
| CC(C)(C)OC(=O)NC1CCN(c2ccc(-n3nc(C(F)(F)F)cc3C(C)(C)C)cc2)C1 (stereo not drawn) [Compound 202] | 8.5 µM | > 50 µM |
| CCCCCC(=O)NC1CCN(c2ccc(-n3nc(C(F)(F)F)cc3-c3ccc(-c4ccc(C(F)(F)F)cc4)cc3)cc2)C1 (stereo not drawn) [Compound 63] | > 10 µM | > 50 µM |
| NC(Cc1ccccc1)C(=O)Nc1ccc(-n2cc(C(F)(F)F)nc2-c2ccc(-c3ccc(C(F)(F)F)cc3)cc2)cc1 (stereo not drawn) [Compound 80] | 3 µM | 8.2 µM |
| FC(F)(F)c1cc(C2CCCCC2)n(-c2ccc(NC3CCN(Cc4ccccc4)CC3)cc2)n1 [Compound 381] | 6.2 µM | 12.4 µM |

| Compound | IC50 [1] | CC50 (THP-1 macrophages) |
| --- | --- | --- |
| NCCCCN1CCC(Oc2ccc(-n3nc(C(F)(F)F)cc3C3CCCCC3)cc2)CC1 [Compound 424] | 2.4 µM | 6.5 µM |
| FC(F)(F)c1cc(-c2ccc(-c3cccs3)cc2)n(-c2ccc(N3CCNCC3)cc2)n1 [Compound 209] | 3 µM | 10.2 µM |
| FC(F)(F)c1cc(C2CCCCC2)n(-c2ccc(NC3CCNC3)cc2)n1 (stereo not drawn) [Compound 312] | 4.8 µM | 25.5 µM |
| Fc1cccc(CNC2CCN(c3ccc(-n4nc(C(F)(F)F)cc4C4CCCCC4)cc3)CC2)c1 [Compound 337] | 3.5 µM | 32.1 µM |
| FC(F)(F)c1cc(-c2ccc(-c3ccc(S(F)(F)(F)(F)F)cc3)cc2)n(-c2ccc(N3CCC(NCc4ccccc4)C3)cc2)n1 (stereo not drawn) [Compound 107] | > 10 µM | > 50 µM |
| Cc1ccc(-n2nc(C(F)(F)F)cc2-c2ccc(-c3ccc(C(F)(F)F)cc3)cc2)c(C)c1 [Compound 185] | > 10 µM | > 50 µM |
| CC(=O)NCCCN1CCC(Oc2ccc(-n3nc(C(F)(F)F)cc3C3CCCCC3)cc2)CC1 [Compound 428] | 8.9 µM | 11.4 µM |
| FC(F)(F)c1cc(C(F)(F)F)n(-c2ccc(NC3CCNC3)cc2)n1 (stereo not drawn) [Compound 314] | 2.7 µM | 21.9 µM |
| Cc1ccc(-c2cc(C(F)(F)F)nn2-c2ccc(Br)cc2)cc1 [Compound 196] | > 10 µM | > 50 µM |
| NCC(=O)NC1CCN(c2ccc(-n3nc(C(F)(F)F)cc3-c3ccc(-c4ccc(C(F)(F)F)cc4)cc3)cc2)CC1 [Compound 111] | 2.9 µM | 5.2 µM |
| FC(F)(F)c1cn(-c2ccc(N3CCC(NCc4ccccc4)C3)cc2)c(-c2ccc(-c3ccccc3)cc2)n1 (stereo not drawn) [Compound 84] | 6.5 µM | > 50 µM |
| FC(F)(F)c1ccc(-c2ccc(-c3cc(C(F)(F)F)nn3-c3ccc(OC4CCN(Cc5ccccc5)C4)cc3)cc2)cc1 (stereo not drawn) [Compound 145] | > 10 µM | > 50 µM |
| NC1CCN(c2ccc(-n3ccnc3-c3ccc(-c4ccccc4)cc3)cc2)C1 (stereo not drawn) [Compound 83] | 1.8 µM | 6.2 µM |
| CC(C)(C)c1ccc(-c2nc(C(F)(F)F)cn2-c2ccc([N+](=O)[O-])cc2)cc1 [Compound 146] | 4.4 µM | > 50 µM |
| FC(F)(F)c1ccc(-c2ccc(-c3cc(C(F)(F)F)nn3-c3ccc(N4CCC(NCc5ccc(Cl)c(C(F)(F)F)c5)CC4)cc3)cc2)cc1 [Compound 120] | > 10 µM | > 50 µM |
| CCc1cc(C(F)(F)F)nn1-c1ccc(NC2CCNC2)cc1 (stereo not drawn) [Compound 318] | 1.8 µM | 27 µM |
| FC(F)(F)c1ccc(-c2ccc(-c3cc(C(F)(F)F)nn3-c3ccc(NC4CC(Cc5ccc(Cl)cc5)C4)cc3)cc2)cc1 (stereo not drawn) [Compound 66] | > 10 µM | > 50 µM |
| CC(C)(C)OC(=O)NC1CCN(C(=O)c2ccc(-n3cc(C(F)(F)F)nc3-c3ccc(-c4ccc(C(F)(F)F)cc4)cc3)c(F)c2)C1 (stereo not drawn) [Compound 182] | 5.9 µM | 18 µM |
| CC(C)C#Cc1ccc(-c2cc(C(F)(F)F)nn2-c2ccc(N3CCC(NCc4ccccc4)C3)cc2)cc1 (stereo not drawn) [Compound 99] | > 10 µM | 29.2 µM |
| FC(F)(F)C#Cc1ccc(-c2cc(C(F)(F)F)nn2-c2ccc(N3CCNCC3)cc2)cc1 [Compound 93] | > 10 µM | 40 µM |
| CC(C)(C)c1nc(C(F)(F)F)cn1-c1ccc(NC2CCNC2)cc1 (stereo not drawn) [Compound 330] | 6.2 µM | > 50 µM |
| FC(F)(F)c1cc(-c2ccccc2C(F)(F)F)n(-c2ccc(Br)cc2)n1 [Compound 255] | > 10 µM | > 50 µM |
| FC(F)(F)c1ccc(-c2ccc(-c3cc(C(F)(F)F)nn3-c3ccc(NC4CCN(Cc5ccccc5)CC4)cc3)cc2)cc1 [Compound 115] | 7.4 µM | 13.2 µM |
| FC(F)(F)c1cc(-c2ccc(Cl)cc2)n(-c2ccc(Br)cc2)n1 [Compound 194] | > 10 µM | > 50 µM |
| FC(F)(F)c1cc(C2CCCCC2)n(-c2ccc(N3CCC(NCc4ccccc4)CC3)cc2)n1 [Compound 336] | 2.4 µM | 15.9 µM |
